Reference: US12152018B2, “Compounds and compositions for treating conditions associated with STING activity” (IFM Due, Inc., priority 2021, dated 2024)
pEC50: −log10 of the molar value.

Biological target: hSTING (Homo sapiens, UniProt Q86WV6)
Assay: STING reporter assay in THP1-Dual KO-IFNAR2 cells (2′3′cGAMP stimulation, luciferase reporter)
Type: cell-based
Conditions: 15 μM 2′3′cGAMP, 24 h, luciferase reporter activity
Procedure: STING pathway activation by the compounds described herein was measured using THP1-Dual™ cells (KO-IFNAR2).
THP1-Dual™ KO-IFNAR2 Cells (obtained from invivogen) were maintained in RPMI, 10% FCS, 5 ml P/S, 2 mM L-glut, 10 mM Hepes, and 1 mM sodium pyruvate. Compounds were spotted in empty 384 well tissue culture plates (Greiner 781182) by Echo for a final concentration of 0.0017-100 μM. Cells were plated into the TC plates at 40 μL per well, 2×10E6 cells/mL. For activation with STING ligand, 2′3′cGAMP (MW 718.38, obtained from Invivogen), was prepared in Optimem media.
The following solutions were prepared for each 1×384 plate: • Solution A: 2 mL Optimem with one of the following stimuli: • 60 μL of 10 mM 2′3′cGAMP→150 μM stock • Solution B: 2 mL Optimem with 60 μL Lipofectamine 2000→Incubate 5 min at RT
2 mL of solution A and 2 ml Solution B was mixed and incubated for 20 min at room temperature (RT). 20 μL of transfection solution (A+B) was added on top of the plated cells, with a final 2′3′cGAMP concentration of 15 μM. The plates were then centrifuged immediately at 340 g for 1 minute, after which they were incubated at 37° C., 5% CO2, >98% humidity for 24 h. Luciferase reporter activity was then measured. EC50 values were calculated by using standard methods known in the art.
Luciferase reporter assay: 10 μL of supernatant from the assay was transferred to white 384-plate with flat bottom and squared wells. One pouch of QUANTI-Luc™ Plus was dissolved in 25 mL of water. 100 μL of QLC Stabilizer per 25 mL of QUANTI-Luc™ Plus solution was added. 50 μL of QUANTI-Luc™ Plus/QLC solution per well was then added. Luminescence was measured on a Platereader (e.g., Spectramax I3X (Molecular Devices GF3637001)).
Luciferase reporter activity was then measured. EC50 values were calculated by using standard methods known in the art.

Sequence of hSTING (Q86WV6 whole entry R71H/G230A/H232R/R293Q, form open): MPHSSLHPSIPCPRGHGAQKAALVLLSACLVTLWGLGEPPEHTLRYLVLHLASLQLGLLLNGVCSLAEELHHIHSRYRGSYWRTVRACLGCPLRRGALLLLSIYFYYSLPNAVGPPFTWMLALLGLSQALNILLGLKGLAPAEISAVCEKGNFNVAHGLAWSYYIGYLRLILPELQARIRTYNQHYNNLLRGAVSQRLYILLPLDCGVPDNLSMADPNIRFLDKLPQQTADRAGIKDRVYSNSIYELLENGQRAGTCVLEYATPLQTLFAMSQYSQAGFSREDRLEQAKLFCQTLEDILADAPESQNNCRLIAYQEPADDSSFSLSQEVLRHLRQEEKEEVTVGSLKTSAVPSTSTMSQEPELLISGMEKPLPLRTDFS

Row | Structure (SMILES) | pEC50
1 | CCc1ccc(-n2cc(-c3ccc4[nH]cc(NC(=O)N5CCN(C(C)=O)CC5)c4c3)cn2)cc1 [Compound 108, 4-acetyl-N-{5-[1-(4-ethylphenyl)-1H-pyrazol-4-yl]-1H-indol-3-yl}piperazine-1-carboxamide] | 5.30 to 6.00
2 | CCc1ccc(-n2cc(-c3ccc4[nH]cc(NC(=O)NCC5CCCC5)c4c3)cn2)cc1 [Compound 111, 1-(cyclopentylmethyl)-3-{5-[1-(4-ethylphenyl)-1H-pyrazol-4-yl]-1H-indol-3-yl}urea] | 6.00 to 6.70
3 | CNC(=O)Nc1c[nH]c2ccc(-c3cnn(-c4ccccc4Cl)c3)cc12 [Compound 115, 1-{5-[1-(2-chlorophenyl)-1H-pyrazol-4-yl]-1H-indol-3-yl}-3-methylurea] | 5.30 to 6.00
4 | O=C(NCC(F)(F)F)Nc1c[nH]c2ccc(-c3cnn(-c4ccc(C(F)(F)F)cc4)c3)cc12 [Compound 104, 1-(2,2,2-trifluoroethyl)-3-(5-(1-(4-(trifluoromethyl)phenyl)-1H-pyrazol-4-yl)-1H-indol-3-yl)urea] | 6.00 to 6.70
5 | CNC(=O)Nc1c[nH]c2ccc(-c3cnn(Cc4ccc(C(F)(F)F)cc4)c3)cc12 [Compound 105, 1-methyl-3-(5-(1-(4-(trifluoromethyl)benzyl)-1H-pyrazol-4-yl)-1H-indol-3-yl)urea] | 6.00 to 6.70
6 | O=C(NCC1CC1)Nc1c[nH]c2ccc(-c3cnn(-c4ccc(C(F)(F)F)cc4)c3)cc12 [Compound 109, 1-(cyclopropylmethyl)-3-(5-(1-(4-(trifluoromethyl)phenyl)-1H-pyrazol-4-yl)-1H-indol-3-yl)urea] | 6.00 to 6.70
7 | CCc1ccc(-n2cc(-c3ccc4[nH]cc(NC(=O)NCCOC)c4c3)cn2)cc1 [Compound 110, 1-(5-(1-(4-ethylphenyl)-1H-pyrazol-4-yl)-1H-indol-3-yl)-3-(2-methoxyethyl) urea] | 6.00 to 6.70
8 | CNC(=O)Nc1c[nH]c2ccc(-c3cnn(-c4cccc(C#N)c4)c3)cc12 [Compound 116, 1-{5-[1-(3-cyanophenyl)-1H-pyrazol-4-yl]-1H-indol-3-yl}-3-methylurea] | 4.00 to 5.30
9 | CCc1ccc(-n2cc(-c3ccc4[nH]cc(NC(=O)N(C)C)c4c3)cn2)cc1 [Compound 119, 3-(5-(1-(4-ethylphenyl)-1H-pyrazol-4-yl)-1H-indol-3-yl)-1,1-dimethylurea] | 6.00 to 6.70
10 | CCc1ccc(-n2cc(-c3ccc4[nH]cc(NC(=O)NC5CCCC5)c4c3)cn2)cc1 [Compound 120, 1-cyclopentyl-3-(5-(1-(4-ethylphenyl)-1H-pyrazol-4-yl)-1H-indol-3-yl)urea] | 6.00 to 6.70
11 | O=C(NCC1CC1)Nc1c[nH]c2ccc(-c3cnn(Cc4ccc(C(F)(F)F)cc4)c3)cc12 [Compound 103, 1-(cyclopropylmethyl)-3-(5-(1-(4-(trifluoromethyl)benzyl)-1H-pyrazol-4-yl)-1H-indol-3-yl)urea] | 6.00 to 6.70
12 | CNC(=O)Nc1c[nH]c2ccc(-c3cnn(-c4ccc(C(F)(F)F)cc4)c3)cc12 [Compound 118, 1-methyl-3-(5-(1-(4-(trifluoromethyl)phenyl)-1H-pyrazol-4-yl)-1H-indol-3-yl)urea] | 6.00 to 6.70
13 | CNC(=O)Nc1c[nH]c2ccc(-c3cnn(-c4cccc(Cl)c4)c3)cc12 [Compound 113, 1-{5-[1-(3-chlorophenyl)-1H-pyrazol-4-yl]-1H-indol-3-yl}-3-methylurea] | 6.00 to 6.70
14 | O=C(NCC(F)(F)F)Nc1c[nH]c2ccc(-c3cnn(-c4ccc(C(F)(F)F)cn4)c3)cc12 [Compound 107, 1-(2,2,2-trifluoroethyl)-3-(5-(1-(5-(trifluoromethyl)pyridin-2-yl)-1H-pyrazol-4-yl)-1H-indol-3-yl)urea] | 6.00 to 6.70
15 | CCc1ccc(-n2cc(-c3ccc4[nH]cc(NC(=O)N5CCCC5)c4c3)cn2)cc1 [Compound 112, N-(5-(1-(4-ethylphenyl)-1H-pyrazol-4-yl)-1H-indol-3-yl)pyrrolidine-1-carboxamide] | 6.00 to 6.70
16 | CNC(=O)Nc1c[nH]c2ccc(-c3ccnc(N4CCCCC4)c3)cc12 [Compound 117, 3-methyl-1-{5-[2-(piperidin-1-yl)pyridin-4-yl]-1H-indol-3-yl}urea] | 4.00 to 5.30
17 | CC(C)(O)CNC(=O)Nc1c[nH]c2ccc(-c3cnn(-c4ccc(C(F)(F)F)cc4)c3)cc12 [Compound 102, 1-(2-hydroxy-2-methylpropyl)-3-(5-(1-(4-(trifluoromethyl)phenyl)-1H-pyrazol-4-yl)-1H-indol-3-yl)urea] | 6.00 to 6.70
18 | O=C(NCC1CC1)Nc1c[nH]c2ccc(-c3cnn(-c4ccc(C(F)(F)F)cn4)c3)cc12 [Compound 106, 1-(cyclopropylmethyl)-3-(5-(1-(5-(trifluoromethyl)pyridin-2-yl)-1H-pyrazol-4-yl)-1H-indol-3-yl)urea] | 6.00 to 6.70
19 | CCc1ccc(-n2cc(-c3ccc4[nH]cc(NC(=O)NCCC(F)(F)F)c4c3)cn2)cc1 [Compound 114, 1-(5-(1-(4-ethylphenyl)-1H-pyrazol-4-yl)-1H-indol-3-yl)-3-(3,3,3-trifluoropropyl)urea] | 6.70 to 7.40
20 | CC(=O)N1CCC(NC(=O)Nc2c[nH]c3ccc(-c4cnn(-c5ccc(C(F)(F)F)cc5)c4)cc23)C1 (centres unmarked) [Compound 101, 1-(1-acetylpyrrolidin-3-yl)-3-(5-(1-(4-(trifluoromethyl)phenyl)-1H-pyrazol-4-yl)-1H-indol-3-yl)urea] | 5.30 to 6.00

The remaining lines, values ahead:

Row | pEC50 | Structure (SMILES)
21 | 6.00 to 6.70 | CCc1ccc(-n2cc(-c3ccc4[nH]cc(NC(=O)NC5CCC5)c4c3)cn2)cc1 [Compound 126, 1-cyclobutyl-3-(5-(1-(4-ethylphenyl)-1H-pyrazol-4-yl)-1H-indol-3-yl)urea]
22 | 6.70 to 7.40 | CCc1ccc(-n2cc(-c3ccc4[nH]cc(NC(=O)NCC(F)(F)F)c4c3)cn2)cc1 [Compound 129, 1-{5-(1-(4-ethylphenyl)-1H-pyrazol-4-yl]-1H-indol-3-yl}-3-(2,2,2-trifluoroethyl)urea]
23 | 6.00 to 6.70 | CCc1ccc(-n2cc(-c3ccc4[nH]cc(NC(=O)NC(C)C)c4c3)cn2)cc1 [Compound 130, 1-(5-(1-(4-ethylphenyl)-1H-pyrazol-4-yl)-1H-indol-3-yl)-3-isopropylurea]
24 | 6.00 to 6.70 | CCc1ccc(-n2cc(-c3ccc4[nH]cc(NC(=O)NC5CCOC5)c4c3)cn2)cc1 (centres unmarked) [Compound 124, 1-(5-(1-(4-ethylphenyl)-1H-pyrazol-4-yl)-1H-indol-3-yl)-3-(tetrahydrofuran-3-yl)urea]
25 | 4.00 to 5.30 | CNC(=O)Nc1c[nH]c2ccc(-c3cnn(C4CCCC4)c3)cc12 [Compound 123, 1-[5-(1-cyclopentyl-1H-pyrazol-4-yl)-1H-indol-3-yl]-3-methylurea]
26 | 6.00 to 6.70 | CCc1ccc(-n2cc(-c3ccc4[nH]cc(NC(=O)NC)c4c3)cn2)cc1 [Compound 132, 1-(5-(1-(4-ethylphenyl)-1H-pyrazol-4-yl)-1H-indol-3-yl)-3-methylurea]
27 | 6.00 to 6.70 | CCc1ccc(-n2cc(-c3ccc4[nH]cc(NC(=O)N[C@H]5C[C@H](OC)C5)c4c3)cn2)cc1 [Compound 125, 1-(5-(1-(4-ethylphenyl)-1H-pyrazol-4-yl)-1H-indol-3-yl)-3-((1r,3r)-3-methoxycyclobutyl)urea]
28 | 6.00 to 6.70 | CCc1ccc(-n2cc(-c3ccc4[nH]cc(NC(=O)NCC5CC5)c4c3)cn2)cc1 [Compound 128, 1-(cyclopropylmethyl)-3-(5-(1-(4-ethylphenyl)-1H-pyrazol-4-yl)-1H-indol-3-yl)urea]
29 | 5.30 to 6.00 | CNC(=O)Nc1c[nH]c2ccc(-c3cnn(-c4ccccc4)c3)cc12 [Compound 131, 3-methyl-1-[5-(1-phenyl-1H-pyrazol-4-yl)-1H-indol-3-yl]urea]
30 | 4.00 to 5.30 | CNC(=O)Nc1c[nH]c2ccc(-c3ccc(C4(C#N)CC4)cc3)cc12 [Compound 121, 1-{5-[4-(1-cyanocyclopropyl)phenyl]-1H-indol-3-yl}-3-methylurea]
31 | 6.00 to 6.70 | CCc1ccc(-n2cc(-c3ccc4[nH]cc(NC(=O)NCC(F)F)c4c3)cn2)cc1 [Compound 127, 1-(2,2-difluoroethyl)-3-(5-(1-(4-ethylphenyl)-1H-pyrazol-4-yl)-1H-indol-3-yl)urea]
32 | 5.30 to 6.00 | CNC(=O)Nc1c[nH]c2ccc(-c3cccc(C4CC4)c3)cc12 [Compound 122, 1-[5-(3-cyclopropylphenyl)-1H-indol-3-yl]-3-methylurea]
